According to ChEMBL document CHEMBL1667735, “Human cytochrome P450 liability studies of trans-dihydronarciclasine: a readily available, potent, and selective cancer cell growth inhibitor” (J Nat Prod, 2011):

Key:
Cytochrome P450 1A1 = molecular target: T1, Cytochrome P450 1A1 (Homo sapiens, UniProt P04798); assay: Inhibition of human CYP1A1 at 10 uM; assay type: ADME
T1 sequence (P04798 whole entry): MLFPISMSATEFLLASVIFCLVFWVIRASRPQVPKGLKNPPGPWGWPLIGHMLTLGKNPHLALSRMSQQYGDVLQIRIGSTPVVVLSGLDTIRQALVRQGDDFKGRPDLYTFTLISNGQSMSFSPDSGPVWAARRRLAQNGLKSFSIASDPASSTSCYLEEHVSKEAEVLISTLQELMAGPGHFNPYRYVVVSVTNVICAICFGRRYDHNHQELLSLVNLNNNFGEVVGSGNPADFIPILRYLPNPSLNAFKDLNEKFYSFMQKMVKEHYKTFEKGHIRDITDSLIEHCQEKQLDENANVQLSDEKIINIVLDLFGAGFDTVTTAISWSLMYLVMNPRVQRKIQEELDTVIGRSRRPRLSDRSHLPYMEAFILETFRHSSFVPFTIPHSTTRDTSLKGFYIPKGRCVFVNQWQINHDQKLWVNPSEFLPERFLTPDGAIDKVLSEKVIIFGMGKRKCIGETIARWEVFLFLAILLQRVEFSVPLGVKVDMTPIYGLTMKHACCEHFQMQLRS

Aromatase = molecular target: T2, Aromatase (Homo sapiens, UniProt P11511); assay: Inhibition of human CYP19 at 10 uM; assay type: ADME
T2 sequence (P11511 whole entry): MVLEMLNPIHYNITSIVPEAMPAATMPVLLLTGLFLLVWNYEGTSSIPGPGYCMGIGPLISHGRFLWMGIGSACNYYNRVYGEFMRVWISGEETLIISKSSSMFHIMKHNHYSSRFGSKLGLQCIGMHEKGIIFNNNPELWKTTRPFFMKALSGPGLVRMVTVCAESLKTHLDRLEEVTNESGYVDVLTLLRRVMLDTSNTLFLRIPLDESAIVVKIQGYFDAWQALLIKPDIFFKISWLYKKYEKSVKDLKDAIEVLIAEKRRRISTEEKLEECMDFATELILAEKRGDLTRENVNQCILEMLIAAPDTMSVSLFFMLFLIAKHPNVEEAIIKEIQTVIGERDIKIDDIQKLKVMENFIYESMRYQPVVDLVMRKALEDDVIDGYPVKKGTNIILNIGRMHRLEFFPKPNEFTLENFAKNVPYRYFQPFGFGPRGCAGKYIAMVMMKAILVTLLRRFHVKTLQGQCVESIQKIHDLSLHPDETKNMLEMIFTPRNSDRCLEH

O=C1N[C@H]2[C@H](O)[C@H](O)[C@@H](O)C[C@@H]2c2cc3c(c(O)c21)OCO3
inhibition (INH) (Cytochrome P450 1A1): Not Active | inhibition (INH) (Aromatase): Not Active
